Assay results published in PMC7582373, “Bis-Lactam Peptide [i, i+4]-Stapling with α-Methylated Thialysines” (Molecules, 2020).
*1 amine or outer side, *2 acyl side, *3 side chain or, on linkers, in order; H or OH if unused. Where a SMILES comes first, the peptide text is derived from it. Bridges are numbered along the chain shown (N, C = ends). [ ]: non-standard residue; d: D form. X1 = O=C(Cc1ccc(CC(=O)NCC[*:2])cc1)NCC[*:1]; αMeC = C[C@](N)(CS)C(=O)O

Legend:
circular dichroism = settings: water; pH ns; 25 °C; 25 and/or 50 uM
in vitro = in vitro ADME; settings: Streptomyces griseus, isolated enzyme pronase, pH 7.3
Text: We further compared the proteolytic stability of the L-α-methyl-thialysine-stapled peptide 5 and the L-thialysine-stapled peptide 6 by employing pronase as the proteolytic enzyme preparation in a proteolysis experiment. Of note, pronase is a mixture of a variety of different proteases/peptidases and therefore has a very broad substrate specificity. […] This observed difference in the proteolytic stability of 5 and 6 is in the same direction of change with the % α-helicity of 5 and 6 (see above), which would be consistent with the notion that an enhanced % α-helicity would improve the proteolytic stability of a stapled peptide, which was also supported previously with the peptides stapled with other stapling systems such as the all-hydrocarbon-stapled peptides.
The following materials were obtained from commercial sources for compound synthesis/purification and the pronase digestion assay, and were used as received. Sigma-Aldrich China (Shanghai, China): N-methylmorpholine (NMM), trifluoroacetic acid (TFA), N,N-dimethylformamide (DMF), N-(allyloxycarbonyloxy)succinimide (Alloc-OSu), triethylamine, Trizma, the pronase from Streptomyces griseus; TCI Shanghai: para-phenylenediacetic acid, 2-(tert-butoxycarbonylamino)ethyl bromide, 1,8-diazabicyclo[5.4.0]undec-7-ene (DBU), L-cysteine, N-(9-fluorenylmethoxycarbonyloxy) succinimide (Fmoc-OSu), phenylsilane (PhSiH3), tetrakis(triphenylphosphine)palladium (Pd(PPh3)4); Alfa Aesar China (Shanghai, China): 2-(1H-benzotriazole-1-yl)-1,1,3,3-tetramethylaminium hexafluorophosphate (HBTU), 2-(7-Aza-1H-benzotriazole-1-yl)-1,1,3,3-tetramethyluronium hexafluorophosphate (HATU), N-hydroxybenzotriazole (HOBt), phenol, thioanisole, ethanedithiol; Honeywell China (Shanghai, China): acetonitrile, dichloromethane (DCM), methanol, ethyl acetate; Sinopharm Chemical Reagent Co., Ltd. (Shanghai, China): acetic anhydride, diethyl ether, semi-preparative thin-layer chromatography (TLC) silica gel plate (HSGF254, 20 × 20 cm, 0.4–0.5 mm); Shanghai Plus Bio-Sci & Tech Co., Ltd. (Shanghai, China): Rink amide 4-methylbenzhydrylamine (MBHA) resin; SyncoZymes Co., Ltd. (Shanghai, China): D-2-methyl-cysteine hydrochloride; Fisher Scientific Worldwide Co., Ltd. (Shanghai, China): L-2-methyl-cysteine hydrochloride.
This experiment followed the protocol described previously. Fifty (50) µL of an 160 μM solution of a peptide (5, 6, 7, or 8) in ddH2O was thoroughly mixed with 50 μL of an 8 ng/μL solution of pronase in 100 mM Tris•HCl (pH 7.3), and the resultant solution was incubated at 37 °C until quenched at different time points (0 min, 4 min, 7.5 min, and 15 min) with an 1.0 M solution of acetic acid in ddH2O. Twenty (20) μL of a pronase digestion solution was taken at each time point and treated immediately with 40 μL of the 1.0 M acetic acid aqueous solution, followed instantly by vigorous vortexing and centrifugation. The obtained supernatant was then injected into a C18 analytical HPLC column (0.46 × 25 cm, 5 μm), and the column was eluted at 1 mL/min with ultraviolet monitoring at 214 nm with the following gradients of ddH2O containing 0.05% (v/v) TFA (mobile phase A) and acetonitrile containing 0.05% (v/v) TFA (mobile phase B): linear increase of B from 0% to 45% in 60 min (for 5 and 6), linear increase of B from 0% to 60% in 60 min (for 7), or linear increase of B from 0% to 100% in 60 min (for 8). The integrated HPLC peak areas at different time points for a given peptide were used to estimate the percentage remaining for the peptide as the function of the digestion time.

CC[C@H](C)[C@H](NC(=O)[C@H](CCC(=O)O)NC(=O)[C@H](CO)NC(C)=O)C(=O)N[C@H](C(=O)N[C@@H](CCCCN)C(=O)N[C@@H](CCC(N)=O)C(=O)N[C@@H](CCC(=O)O)C(=O)N[C@@H](CCCCN)C(=O)N[C@@]1(C)CSCCNC(=O)Cc2ccc(cc2)CC(=O)NCCSC[C@](C)(C(=O)N[C@@H](Cc2c[nH]cn2)C(=O)N[C@@H](CCCNC(=N)N)C(=O)N[C@@H](Cc2c[nH]cn2)C(=O)N[C@@H](Cc2ccc(O)cc2)C(=O)N[C@@H](CS)C(N)=O)NC(=O)[C@H](Cc2c[nH]c3ccccc23)NC(=O)[C@H](CC(C)C)NC(=O)[C@H](Cc2ccccc2)NC1=O)[C@@H](C)O
helicity (circular dichroism): 11.8%

CC[C@H](C)[C@H](NC(=O)[C@H](CCC(=O)O)NC(=O)[C@H](CO)NC(C)=O)C(=O)N[C@H](C(=O)N[C@@H](CCCCN)C(=O)N[C@@H](CCC(N)=O)C(=O)N[C@@H](CCC(=O)O)C(=O)N[C@@H](CCCCN)C(=O)N[C@]1(C)CSCCNC(=O)Cc2ccc(cc2)CC(=O)NCCSC[C@@](C)(C(=O)N[C@@H](Cc2c[nH]cn2)C(=O)N[C@@H](CCCNC(=N)N)C(=O)N[C@@H](Cc2c[nH]cn2)C(=O)N[C@@H](Cc2ccc(O)cc2)C(=O)N[C@@H](CS)C(N)=O)NC(=O)[C@H](Cc2c[nH]c3ccccc23)NC(=O)[C@H](CC(C)C)NC(=O)[C@H](Cc2ccccc2)NC1=O)[C@@H](C)O
helicity (circular dichroism): 11.1%

CC[C@H](C)[C@H](NC(=O)[C@H](CCC(=O)O)NC(=O)[C@H](CO)NC(C)=O)C(=O)N[C@H](C(=O)N[C@@H](CCCCN)C(=O)N[C@@H](CCC(N)=O)C(=O)N[C@@H](CCC(=O)O)C(=O)N[C@@H](CCCCN)C(=O)N[C@]1(C)CSCCNC(=O)Cc2ccc(cc2)CC(=O)NCCSC[C@](C)(C(=O)N[C@@H](Cc2c[nH]cn2)C(=O)N[C@@H](CCCNC(=N)N)C(=O)N[C@@H](Cc2c[nH]cn2)C(=O)N[C@@H](Cc2ccc(O)cc2)C(=O)N[C@@H](CS)C(N)=O)NC(=O)[C@H](Cc2c[nH]c3ccccc23)NC(=O)[C@H](CC(C)C)NC(=O)[C@H](Cc2ccccc2)NC1=O)[C@@H](C)O
helicity (circular dichroism): 10.4%

CC[C@H](C)[C@H](NC(=O)[C@H](CCC(=O)O)NC(=O)[C@H](CO)NC(C)=O)C(=O)N[C@H](C(=O)N[C@@H](CCCCN)C(=O)N[C@@H](CCC(N)=O)C(=O)N[C@@H](CCC(=O)O)C(=O)N[C@@H](CCCCN)C(=O)N[C@@]1(C)CSCCNC(=O)Cc2ccc(cc2)CC(=O)NCCSC[C@@](C)(C(=O)N[C@@H](Cc2c[nH]cn2)C(=O)N[C@@H](CCCNC(=N)N)C(=O)N[C@@H](Cc2c[nH]cn2)C(=O)N[C@@H](Cc2ccc(O)cc2)C(=O)N[C@@H](CS)C(N)=O)NC(=O)[C@H](Cc2c[nH]c3ccccc23)NC(=O)[C@H](CC(C)C)NC(=O)[C@H](Cc2ccccc2)NC1=O)[C@@H](C)O [compound 5]
helicity (circular dichroism): 10.4%
remaining at 4 min, 80 µM (in vitro): ~19.2%
remaining at 0.125 h, 80 µM (in vitro): ~5.6%

CC[C@H](C)[C@H](NC(=O)[C@H](CCC(=O)O)NC(=O)[C@H](CO)NC(C)=O)C(=O)N[C@H](C(=O)N[C@@H](CCCCN)C(=O)N[C@@H](CCC(N)=O)C(=O)N[C@@H](CCC(=O)O)C(=O)N[C@@H](CCCCN)C(=O)N[C@H]1CSCCNC(=O)Cc2ccc(cc2)CC(=O)NCCSC[C@@H](C(=O)N[C@@H](Cc2c[nH]cn2)C(=O)N[C@@H](CCCNC(=N)N)C(=O)N[C@@H](Cc2c[nH]cn2)C(=O)N[C@@H](Cc2ccc(O)cc2)C(=O)N[C@@H](CS)C(N)=O)NC(=O)[C@H](Cc2c[nH]c3ccccc23)NC(=O)[C@H](CC(C)C)NC(=O)[C@H](Cc2ccccc2)NC1=O)[C@@H](C)O [compound 6] (Ac-SEITKQEKCFLWCHRHYC-NH2; linker 9-13 via X1)
helicity (circular dichroism): 4.4%
remaining at 4 min, 80 µM (in vitro): ~11.1%
remaining at 0.125 h, 80 µM (in vitro): ~4.3%

CC(=O)N[C@@H](CCC(=O)O)C(=O)N[C@@H](Cc1c[nH]c2ccccc12)C(=O)N[C@@H](C)C(=O)N[C@@H](CCC(=O)O)C(=O)N[C@H](C(=O)N[C@@H](C)C(=O)N[C@@H](C)C(=O)N[C@@]1(C)CSCCNC(=O)Cc2ccc(cc2)CC(=O)NCCSC[C@@](C)(C(=O)N[C@@H](C)C(=O)N[C@@H](Cc2c[nH]cn2)C(=O)N[C@@H](C)C(N)=O)NC(=O)[C@H](CC(C)C)NC(=O)[C@H](Cc2ccccc2)NC(=O)[C@H](CCCCN)NC1=O)[C@@H](C)O [compound 7] (Ac-EWAETAA[αMeC]KFL[αMeC]AHA-NH2; linker 8-12 via X1)
helicity (circular dichroism): 13.5%
remaining at 4 min, 80 µM (in vitro): ~96.6%
remaining at 0.125 h, 80 µM (in vitro): ~93.3%
remaining at 0.25 h, 80 µM (in vitro): ~81.3%

CC(=O)N[C@@H](CCC(=O)O)C(=O)N[C@@H](Cc1c[nH]c2ccccc12)C(=O)N[C@@H](C)C(=O)N[C@@H](CCC(=O)O)C(=O)N[C@H](C(=O)N[C@@H](C)C(=O)N[C@@H](C)C(=O)N[C@H]1CSCCNC(=O)Cc2ccc(cc2)CC(=O)NCCSC[C@@H](C(=O)N[C@@H](C)C(=O)N[C@@H](Cc2c[nH]cn2)C(=O)N[C@@H](C)C(N)=O)NC(=O)[C@H](CC(C)C)NC(=O)[C@H](Cc2ccccc2)NC(=O)[C@H](CCCCN)NC1=O)[C@@H](C)O [compound 8] (Ac-EWAETAACKFLCAHA-NH2; linker 8-12 via X1)
helicity (circular dichroism): 7.9%
remaining at 4 min, 80 µM (in vitro): ~48.9%
remaining at 0.125 h, 80 µM (in vitro): ~35.7%
remaining at 0.25 h, 80 µM (in vitro): ~21.6%
